Assays:
c-myc mRNA, HL-60 = test: c-myc mRNA levels, real time RT-PCR; assay type: cell-based, human
Procedure: RNA was extracted from 10^6 cells using TRIZOL® Reagent (Life Technologies). Following isopropanol precipitation, the pellet was washed in 75% aqueous ethanol and the RNA was dissolved in […] of diethyl pyrocarbonate (DEPC)-treated distilled water. Subsequently, the samples were stored at −80° C. RNA quantitation was performed by UV measurement at 260 nm. The cDNA synthesis was performed in a total volume of […], containing 1×TaqManÒ RT buffer, 5.5 mM MgCl2, 2 mM dNTPs mixture, 2.5 mM random hexamers, 4 U RNase inhibitor, 12.5 U MultiScriber RT (Perkin Elmer/Applied Biosystems) and […] of RNA. The reaction was performed for 10 min at 25° C., followed by 48° C. for 30 min and a 5 min incubation step at 95° C. After the reaction, […] of DEPC-treated distilled water was added to each sample and […] was used for each PCR.
The PCR and subsequent analyses were performed in the GeneAmp 5700 Sequence Detection System (Applied Biosystems). Real-time quantitation was performed using the TaqMan technology of Applied Biosystems (Foster City, Calif., USA). c-Myc primers and probe sequences (5′ to 3′) were as follows: […], […] and […] (Applied Biosystems).
PCR reactions were performed in triplicate. The PCR reaction mixture contained 300 nM of both primers, 150 nM TaqMan probe, and 1×TaqMan Universal Master Mix (Applied Biosystems). The reactions first were incubated at 50° C. for 2 min, followed by 10 min at 95° C. The PCR itself consisted of 40 cycles with 15 s at 95° C. and 1 min at 60° C. each. The fluorescence signal was measured during the last 30 s of the annealing/extension phase. After the PCR, a fluorescence threshold value was set and threshold cycle (Ct) values were determined, i.e., the fractional cycle at which the fluorescence signal reached this threshold. These values were used for further calculations.
β-Actin (TaqMan PDAR control, Applied Biosystems) was used as an endogenous reference to correct for any differences in the amount of total RNA used for a reaction and to compensate for different levels of inhibition during reverse transcription of RNA into cDNA. c-Myc and β-actin expression were related to a standard curve derived from a serial dilution of K562 cDNA with dH2O. Also, c-Myc and β-actin quantities were expressed in terms of ng of K562 RNA yielding the same level of expression. Subsequently, normalization was achieved by dividing the expression level of c-Myc by the β-actin expression level. Finally, results were expressed as a percentage, where the level of c-Myc observed in the DMSO-treated samples was considered as 100%.
Cells were treated with brusatol (25 ng/ml) or bruceantin (10 ng/ml) for 4 or 24 h and then analyzed for c-myc and β-actin mRNA using real time RT-PCR. Results are shown as percentage of c-myc mRNA expression of control (0.1%, v/v, DMSO) values. Results are the mean of triplicate samples (±standard deviation). c-Myc mRNA values were normalized relative to β-actin.

c-Myc oncoprotein, HL-60 = test: c-Myc oncoprotein expression, western blotting; assay type: cell-based, human
Procedure: The expression of c-Myc was assessed by immunoblots as previously described. In brief, cells (10^6) were treated and harvested at various time intervals, and whole-cell pellets were lysed with detergent lysis buffer (1 ml/10^7 cells, 50 mM Tris-HCl buffer, pH 8.0, 150 mM NaCl, 1 mM DTT, 0.5 mM EDTA, 1% Nonidet® P40, 0.5% sodium deoxycholate, 0.1% sodium dodecylsulfate, 100 μg/ml phenylmethylsulfonyl fluoride, 1 μg/ml aprotinin, 2 μg/ml leupeptin and 100 μM sodium vanadate) to obtain protein lysates. Protein concentrations were quantified using a bicinchoninic acid kit. Since c-Myc is a labile protein, cell lysates were not frozen, but stored at 4° C., until all protein lysates were prepared for a particular cell line, and then western blots were performed immediately. Total protein ([…]) was separated by 10% SDS-PAGE, electroblotted to PVDF membranes, and blocked overnight with 5% nonfat dry milk. The membrane was incubated with a solution of the primary antibody (2.5 μg/ml), prepared in 1% blocking solution, for 2 h at room temperature, washed three-times for 15 min with PBS-T (PBS with 0.1%, v/v, Tween 20), and incubated with a 1:2500 dilution of horseradish peroxidase-conjugated secondary antibody for 30 min at 37° C. Blots were again washed three-times for 10 min each in PBS-T and developed by enhanced chemiluminescence (Amersham). Membranes were exposed to Kodak Biomax film and the resulting film was analyzed using Kodak 1D Image Analysis software. Membranes were then stripped and reprobed for the quantification of bactin.
Cells were treated with solvent (0.1% v/v DMSO, control), brusatol (25 ng/ml) or bruceantin (10 ng/ml) for 4 or 24 h, then analyzed by western blotting. Membranes were probed for c-Myc, and then stripped and probed for β-actin as an internal control.
Cells were treated with brusatol (25 ng/ml) or bruceantin (10 ng/ml) for 4 or 24 h, and then analyzed for c-Myc and β-actin expression using western blotting techniques. Results are expressed as percentage of c-Myc oncoprotein of control (0.1%, v/v, DMSO treated cells) values. Results were normalized relative to β-actin.

**Q.** With `COC(=O)[C@@]12OC[C@]34[C@H]([C@@H](O)[C@@H]1O)[C@@]1(C)CC(=O)C(O)=C(C)[C@@H]1C[C@H]3OC(=O)[C@H](OC(=O)C=C(C)C)[C@@H]24` [compound 1, brusatol] as the compound, how does the “decrease in c-Myc mRNA levels” value (c-myc mRNA, HL-60; 4 h treatment) read?
**A.** about 50%

**Q.** And the “c-myc mRNA expression, percentage of control” value (c-myc mRNA, HL-60; Brusatol (25 ng/ml), 4 h)?
**A.** 54 ± 2 %

**Q.** And the “c-myc mRNA expression, percentage of control” value (c-myc mRNA, HL-60; Brusatol (25 ng/ml), 24 h)?
**A.** 11 ± 2 %

**Q.** And the “decrease of c-Myc protein levels” value (c-Myc oncoprotein, HL-60; 4 h treatment)?
**A.** 100%

**Q.** And the “c-Myc oncoprotein, percentage of control” value (c-Myc oncoprotein, HL-60; Brusatol (25 ng/ml), 4 h)?
**A.** 0%

**Q.** And the “c-Myc oncoprotein, percentage of control” value (c-Myc oncoprotein, HL-60; Brusatol (25 ng/ml), 24 h)?
**A.** 17%

**Q.** Which “c-myc mRNA expression, percentage of control” value (c-myc mRNA, HL-60; Bruceantin (10 ng/ml), 4 h) does the source give for `COC(=O)[C@@]12OC[C@]34[C@H]([C@@H](O)[C@@H]1O)[C@@]1(C)CC(=O)C(O)=C(C)[C@@H]1C[C@H]3OC(=O)[C@H](OC(=O)/C=C(\C)C(C)C)[C@@H]24` [compound 2, bruceantin] here?
**A.** 76 ± 9 %

**Q.** And the “c-myc mRNA expression, percentage of control” value (c-myc mRNA, HL-60; Bruceantin (10 ng/ml), 24 h)?
**A.** 16 ± 0 %

**Q.** What about the “c-Myc oncoprotein, percentage of control” value (c-Myc oncoprotein, HL-60; Bruceantin (10 ng/ml), 4 h) of the same compound?
**A.** 3%

**Q.** And the “c-Myc oncoprotein, percentage of control” value (c-Myc oncoprotein, HL-60; Bruceantin (10 ng/ml), 24 h)?
**A.** 57%

— patent publication US20020193425A1, “Cancer chemopreventative compounds and compositions and methods of treating cancers” (priority 2001, published 2002)
